In patent publication US6509344B1, “Indenoisoquinolines as antineoplastic agents” (The United States of America as represented by the …, priority 1998, dated 2003):
Where two headings read alike, the source gives them in different places.

How the values were obtained:
SF-539 = test: NCI human cancer cell line screen (COMPARE screening), CNS SF-539; format: cell-based
Description: (§1) Considering the diversity of cancer in terms of cell type, morphology, growth rate and other cellular characteristics, the U.S. National Cancer Institute (NCI) has developed a “disease-oriented” approach to anticancer activity screening (M. R. Boyd, in “Principle of Practice of Oncology” […]. Rosenberg (Eds.) Vol. 3, PPO Update, No. 10, 1989). This in vitro prescreening system is based on the measurement of anticancer cytotoxicity against human cancer cell line panels consisting of approximately 60 cell lines of major human cancers (including leukemia and slower growing tumor cells such as lung, colon, breast, skin, kidney, etc.) and is referred hereinafter as “COMPARE” screening. An important advantage of the new in vitro screening panels is the opportunity to facilitate identification of compounds that are selectively more cytotoxic to cells of certain types of cancers, thus increasing the ability to select compounds for further study with respect to specific diseases. The indenoisoquinolines were examined for antiproliferative activity against the human cancer cell lines in the National Cancer Institute screen (COMPARE screening), in which the activity of each compound was evaluated with approximately […] different cancer cell lines of diverse tumor origins.

UACC-62 = test: NCI human cancer cell line screen (COMPARE screening), Melanoma UACC-62; format: cell-based
Description: as §1

OVCAR-3 = test: NCI human cancer cell line screen (COMPARE screening), Ovarian OVCAR-3; format: cell-based
Description: as §1

SN12C = test: NCI human cancer cell line screen (COMPARE screening), Renal SN12C; format: cell-based
Description: as §1

DU-145 = test: NCI human cancer cell line screen (COMPARE screening), Prostate DU-145; format: cell-based
Description: as §1

MDA-MB-435 = test: NCI human cancer cell line screen (COMPARE screening), Breast MDA-MB-435; format: cell-based
Description: as §1

[1] = system: approximately 55 different cancer cell lines of diverse tumor origins; test: NCI screen mean graph midpoint over all cell lines tested; format: cell-based, human; conditions: for IC50: average GI50 for all cell lines tested (approximately 55), values outside test range taken as 10^-8 or 10^-4 molar, read-out: MGM (mean graph midpoint); for cytotoxicity (MGM) relative to lead compound 1: comparison in words
Description: as §1

topoisomerase I = molecular target: T1, topoisomerase I (Homo sapiens, UniProt P11387); test: Topoisomerase I-mediated DNA cleavage assay (3'-end-labeled 161 bp pBluescript SK(-) fragment); format: biochemical; conditions: relative to the activity of 1 μM camptothecin
T1 sequence (P11387 1-765): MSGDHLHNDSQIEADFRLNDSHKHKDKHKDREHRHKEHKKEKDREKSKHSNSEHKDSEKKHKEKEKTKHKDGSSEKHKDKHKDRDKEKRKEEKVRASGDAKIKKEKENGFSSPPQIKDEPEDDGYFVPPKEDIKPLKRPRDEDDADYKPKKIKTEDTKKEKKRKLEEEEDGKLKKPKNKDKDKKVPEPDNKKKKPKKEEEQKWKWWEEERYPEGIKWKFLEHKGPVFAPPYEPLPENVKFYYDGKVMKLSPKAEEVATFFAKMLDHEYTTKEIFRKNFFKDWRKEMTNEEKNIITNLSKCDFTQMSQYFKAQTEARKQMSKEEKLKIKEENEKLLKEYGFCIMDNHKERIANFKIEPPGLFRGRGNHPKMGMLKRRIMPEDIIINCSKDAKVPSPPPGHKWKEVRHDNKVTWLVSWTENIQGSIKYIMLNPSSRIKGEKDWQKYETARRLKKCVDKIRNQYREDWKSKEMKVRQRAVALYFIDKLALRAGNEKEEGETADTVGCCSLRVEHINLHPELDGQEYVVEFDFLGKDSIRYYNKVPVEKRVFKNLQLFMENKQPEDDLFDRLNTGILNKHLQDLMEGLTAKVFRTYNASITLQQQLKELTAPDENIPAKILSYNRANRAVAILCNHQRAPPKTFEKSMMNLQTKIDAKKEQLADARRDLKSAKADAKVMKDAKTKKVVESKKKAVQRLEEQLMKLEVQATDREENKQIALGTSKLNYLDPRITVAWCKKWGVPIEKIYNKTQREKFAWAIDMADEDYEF
Procedure: Topoisomerase I-Mediated DNA Cleavage Reactions Using 3′-End-labeled 161 BP Plasmid DNA
The 161 bp fragment from pBluescript SK(−) phagemid DNA (Stratagene, La Jolla, Calif.) was cleaved with the restriction endonuclease Pvu II and Hind III (New England Biolabs, Beverly, Mass.) in supplied NE buffer 2 (10 μL reactions) for 1 h at 37° C., separated by electrophoresis in a 1% agarose gel made in 1×TBE buffer. The 161 bp fragment was eluted from the gel slice (centrilutor by Amicon) and concentrated in a centricon 50 centrifugal concentrator (Amicon, Beverly, Mass.). Approximately 200 ng of the fragment was 3′-end-labeled at the Hind III site by fill-in reaction with [alpha-^32P]-dCTP and 0.5 mM dATP, dGTP, and dTTP, in React 2 buffer (50 mM Tris-HCl, pH 8.0, […], 50 mM NaCl) with 0.5 units of DNA polymerase I (Klenow fragment). Labeling reactions were followed by phenol-chloroform extraction and ethanol precipitation. The resulting 161 bp 3′-endlabeled DNA fragment was resuspended in water. Aliquots (approximately 50,000 dpm/reaction) were incubated with topoisomerase I at 30° C. for 15 min in the presence of the indicated drug. Reactions were terminated by adding 0.5% SDS. After ethanol precipitation, the samples were resuspended in loading buffer (80% formamide, 10 mM sodium hydroxide, 1 mM sodium EDTA, 0.1% xylene cyanol, and 0.1% bromophenol blue, pH 8.0), and separated in a denaturing gel (16% polyacrylamide, 7 M urea) run at 51° C. The gel was dried and visualized by using a Phosphoimager and ImageQuant software (Molecular Dynamics, Sunnyvale, Calif.).

HOP-62 = test: NCI human cancer cell line screen (COMPARE screening), Lung HOP-62; format: cell-based
Description: as §1

HCT-116 = test: NCI human cancer cell line screen (COMPARE screening), Colon HCT-116; format: cell-based
Description: as §1

[2] = Homo sapiens, SF-539, concentration causing 50% growth inhibition, read-out: Cytotoxicity (G150 in μM) CNS SF-539
[3] = Homo sapiens, UACC-62, concentration causing 50% growth inhibition, read-out: Cytotoxicity (G150 in μM) Melanoma UACC-62
[4] = Homo sapiens, OVCAR-3, concentration causing 50% growth inhibition, read-out: Cytotoxicity (G150 in μM) Ovarian OVCAR-3
[5] = Homo sapiens, SN12C, concentration causing 50% growth inhibition, read-out: Cytotoxicity (G150 in μM) Renal SN12C
[6] = Homo sapiens, DU-145, concentration causing 50% growth inhibition, read-out: Cytotoxicity (G150 in μM) Prostate DU-145
[7] = Homo sapiens, MDA-MB-435, concentration causing 50% growth inhibition, read-out: Cytotoxicity (G150 in μM) Breast MDA-MB-435
[8] = Homo sapiens, HOP-62, concentration causing 50% growth inhibition, read-out: Cytotoxicity (G150 in μM) Lung HOP-62
[9] = Homo sapiens, HCT-116, concentration causing 50% growth inhibition, read-out: Cytotoxicity (G150 in μM) Colon HCT-116

Row | Compound | Top 1 Cleavage (topoisomerase I) | IC50 (HOP-62) | IC50 (HCT-116) | IC50 (SF-539) | IC50 (UACC-62) | IC50 (OVCAR-3) | IC50 (SN12C) | IC50 (DU-145) | IC50 (MDA-MB-435) | IC50 (SF-539; [2]) | IC50 (UACC-62; [3]) | IC50 (OVCAR-3; [4]) | IC50 (SN12C; [5]) | IC50 (DU-145; [6]) | IC50 (MDA-MB-435; [7]) | IC50 ([1]; Homo sapiens) | IC50 (HOP-62; [8]) | IC50 (HCT-116; [9]) | IC50 [1] | cytotoxicity (MGM) relative to lead compound 1 [1]
1 | COC(=O)Cn1c2c(c3ccccc3c1=O)C(=O)c1ccccc1-2 [Compound 6, 5,6-Dihydro-5,11-diketo-6-(methoxycarbonylmethyl)-11H-indeno[1,2-c]isoquinoline] | 0 | – | – | – | – | – | – | – | – | > 100 µM | > 100 µM | > 100 µM | > 100 µM | > 100 µM | > 100 µM | 81 µM | – | – | – | –
2 | CCn1c2c(c3ccccc3c1=O)C(=O)c1ccccc1-2 [Compound 3, 6-Ethyl-5,6-dihydro-5,11-diketo-11H-indeno[1,2-c]isoquinoline] | 0 | – | – | – | – | – | – | – | – | – | – | – | – | – | – | – | – | – | – | –
3 | Cn1c2c(c3ccccc3c1=O)C(=O)c1cc3c(cc1-2)OCO3 [Compound 13a, 5,6-Dihydro-5,11-diketo-6-methyl-8,9-methylenedioxy-11H-indeno[1,2-c]isoquinoline] | + (those compounds having between 20% and 50% of the activity of 1 μM camptothecin) | – | – | – | – | – | – | – | – | – | > 100 µM | > 100 µM | > 100 µM | > 100 µM | – | 45 µM | 22 µM | 54 µM | – | –
4 | CCCn1c2c(c3ccccc3c1=O)C(=O)c1ccccc1-2 [Compound 4, 5,6-Dihydro-5,11-diketo-6-propyl-11H-indeno[1,2-c]isoquinoline] | 0 | – | – | – | – | – | – | – | – | – | – | – | – | – | – | – | – | – | – | –
5 | CCN1C(=O)c2cc(OC)c(OC)cc2[C@@H]2[C@H]1c1cc3c(cc1[C@@H]2O)OCO3 [Compound 24, 6-Ethyl-5,6,12α,13α-tetrahydro-11β-hydroxy-2,3-dimethoxy-8,9-(methylenedioxy)-5-oxo-11H-indeno[1,2-c]isoquinoline] | 0 | – | – | – | – | – | – | – | – | > 100 µM | – | > 100 µM | > 100 µM | > 100 µM | > 100 µM | 100 µM | > 100 µM | > 100 µM | – | –
6 | CC[n+]1cc2cc(OC)c(OC)cc2c2c1-c1cc3c(cc1C2)OCO3 [Compound 27, 6-Ethyl-2,3-dimethoxy-8,9-(methylenedioxy)-11H-indeno[1,2-c]isoquinolinium Chloride] | ++ (those compounds having greater than 50% of the activity of 1 μM camptothecin) | – | – | – | – | – | – | – | – | 5.6 µM | – | 1.9 µM | 2.7 µM | 58 µM | 14 µM | 13 µM | 22 µM | 13 µM | – | lower MGM than the lead compound 1
7 | COc1cc2c3c(n(C)c(=O)c2cc1OC)-c1cc(OC)c(OS(C)(=O)=O)cc1C3=O [Compound 23, 5,6-Dihydro-5,11-diketo-2,3,8-trimethoxy-6-methyl-9[(methylsulfonyl)oxy]-(11H)indeno[1,2-c]isoquinoline] | ± (those compounds having less than 20% of the activity of 1 μM camptothecin) | – | – | – | – | – | – | – | – | – | – | – | – | – | – | – | – | – | – | –
8 | CCN1Cc2cc(OC)c(OC)cc2[C@@H]2[C@H]1c1cc3c(cc1[C@@H]2O)OCO3 [Compound 25, 6-Ethyl-5,6,12α,13α-tetrahydro-11β-hydroxy-2,3-dimethoxy-8,9-(methylenedioxy)-11H-indeno[1,2-c]isoquinoline] | 0 | – | – | – | – | – | – | – | – | 50 µM | – | 24 µM | 26 µM | 41 µM | 25 µM | 31 µM | 30 µM | 35 µM | – | –
9 | COc1cc2c3c(n(Cc4ccccc4)c(=O)c2cc1OC)-c1cc2c(cc1C3=O)OCO2 [Compound 13e, 6-Benzyl-5,6-dihydro-5,11-diketo 2,3-dimethoxy-8,9-methylenedioxy-11H-indeno[1,2-c]isoquinoline] | ± (those compounds having less than 20% of the activity of 1 μM camptothecin) | – | – | – | – | – | – | – | – | – | 50 µM | > 100 µM | – | 4 µM | > 100 µM | 42 µM | 12 µM | > 100 µM | – | lower MGM than the lead compound 1
10 | CCCCn1c2c(c3cc(OC)c(OC)cc3c1=O)C(=O)c1cc3c(cc1-2)OCO3 [Compound 13d, 6-(1-Butyl)-5,6-dihydro-5,11-diketo-2,3-dimethoxy-8,9-methylenedioxy11H-indeno[1,2-c]isoquinoline] | + (those compounds having between 20% and 50% of the activity of 1 μM camptothecin) | – | – | – | – | – | – | – | – | – | 21 µM | 78 µM | – | 16 µM | > 100 µM | 42 µM | 16 µM | 45 µM | – | –

Now from value to compound, other results behind:

Row | Top 1 Cleavage (topoisomerase I) | IC50 (HOP-62) | IC50 (HCT-116) | IC50 (SF-539) | IC50 (UACC-62) | IC50 (OVCAR-3) | IC50 (SN12C) | IC50 (DU-145) | IC50 (MDA-MB-435) | Compound | IC50 (SF-539; [2]) | IC50 (UACC-62; [3]) | IC50 (OVCAR-3; [4]) | IC50 (SN12C; [5]) | IC50 (DU-145; [6]) | IC50 (MDA-MB-435; [7]) | IC50 ([1]; Homo sapiens) | IC50 (HOP-62; [8]) | IC50 (HCT-116; [9]) | IC50 [1] | cytotoxicity (MGM) relative to lead compound 1 [1]
11 | 0 | – | – | – | – | – | – | – | – | Cn1c2c(c3ccccc3c1=O)C(=O)c1cc(OCc3ccccc3)c(OCc3ccccc3)cc1-2 [Compound 13g, 8,9-Dibenzyloxy-5,6-dihydro-5,11-diketo-6-methyl-11H-indeno[1,2-c]isoquinoline] | > 100 µM | 93 µM | > 100 µM | 88 µM | > 100 µM | > 100 µM | 82 µM | 72 µM | > 100 µM | – | –
12 | 0 | > 100 µM | > 100 µM | > 100 µM | 55 µM | > 100 µM | > 100 µM | > 100 µM | > 100 µM | COc1cc2c3c(n(C)c(=O)c2cc1OC)-c1cc(OC)c(OC)c(OC)c1C3=O [Compound 13i, 5,6-Dihydro-5,11-diketo-6methyl-2,3,8,9,10-pentamethoxy-11H-indeno[1,c]isoquinoline] | – | – | – | – | – | – | – | – | – | 95 µM | –
13 | 0 | – | – | – | – | – | – | – | – | COc1cc2c(c(OC)c1OC)C(=O)c1c-2n(C)c(=O)c2ccccc12 [Compound 13j, 5,6-Dihydro-5,11-diketo-6-methyl-8,9,10-trimethoxy-11H-indeno[1,2-c]isoquinoline] | > 100 µM | – | > 100 µM | > 100 µM | > 100 µM | – | 78 µM | 24 µM | – | – | –
